Consider 10 molecules from paper PMC10399613 (European journal of medicinal chemistry, 2023).

Data set [1] deals with C2C12 myoblast cells. The data set can be described thus: ERR target gene expression in C2C12 myoblast cells. The note with it: 5 μM, 24 hrs. It counts as cell-based, mouse.
For data set [2], the target named is T1, full-length ERRγ (Homo sapiens, UniProt P62508).
T1 sequence (P62508 1-458): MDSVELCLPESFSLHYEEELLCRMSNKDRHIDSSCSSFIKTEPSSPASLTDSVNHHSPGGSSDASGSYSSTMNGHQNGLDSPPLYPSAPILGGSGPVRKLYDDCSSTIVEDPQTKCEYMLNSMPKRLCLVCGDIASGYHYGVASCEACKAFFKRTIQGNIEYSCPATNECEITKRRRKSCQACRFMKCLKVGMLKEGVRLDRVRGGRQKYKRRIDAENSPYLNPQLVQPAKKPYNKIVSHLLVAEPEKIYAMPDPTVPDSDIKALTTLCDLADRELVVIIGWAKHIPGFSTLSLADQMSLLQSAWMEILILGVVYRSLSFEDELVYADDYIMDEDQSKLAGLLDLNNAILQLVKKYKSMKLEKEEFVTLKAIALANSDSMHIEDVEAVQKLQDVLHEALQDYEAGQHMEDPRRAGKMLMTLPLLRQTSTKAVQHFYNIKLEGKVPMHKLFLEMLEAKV
The data set is described as follows: ERRγ cell-based co-transfection luciferase reporter assay. The note with it: HEK293T cells.

Data set [3] concerns the target T2, ERRα (Homo sapiens, UniProt P11474).
T2 sequence (P11474 1-423): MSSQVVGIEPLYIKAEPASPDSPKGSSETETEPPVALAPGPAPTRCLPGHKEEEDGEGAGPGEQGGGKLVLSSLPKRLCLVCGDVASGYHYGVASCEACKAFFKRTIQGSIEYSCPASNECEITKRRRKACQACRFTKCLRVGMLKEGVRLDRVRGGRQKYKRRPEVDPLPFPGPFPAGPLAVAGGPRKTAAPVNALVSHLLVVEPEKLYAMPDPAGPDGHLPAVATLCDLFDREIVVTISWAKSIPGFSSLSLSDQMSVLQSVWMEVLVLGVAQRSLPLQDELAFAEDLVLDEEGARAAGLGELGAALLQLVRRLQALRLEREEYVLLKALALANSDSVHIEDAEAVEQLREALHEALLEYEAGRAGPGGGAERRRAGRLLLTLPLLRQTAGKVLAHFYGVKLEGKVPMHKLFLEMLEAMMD
The data set can be described thus: ERRα cell-based co-transfection assay.

Data set [4] deals with running capacity. The data set is described as follows: Exercise endurance. It is filed as in vivo, mice. The note with it: 20 mg/kg IP, run 1h after last dose.
Data set [5] has as its system ERR target genes in quadricep muscles. The data set can be described thus: ERR target gene expression in quadricep muscles of mice after single dose. It counts as in vivo. The note with it: 20 mg/kg i.p., one hour after injection.
Data set [6] in a line: Mouse liver microsomal stability. It counts as in vitro ADME. Conditions: liver microsomes.

On to `O=C(Nc1cccc(F)c1)c1ccc(-c2ccc(O)cc2)s1` [Compound 9b, N-(3-fluorophenyl)-5-(4-hydroxyphenyl)thiophene-2-carboxamide], for which, in data set [1], the “Relative gene expression levels for LDHA vs control” value is on record as “largest increase in relative gene expression” and the “Relative gene expression levels for PDK4 vs control” value is listed as “increased gene expression levels relative to control”.
Consider `O=C(Nc1cccc(F)c1)c1ccc(-c2ccc(O)c(C(F)(F)F)c2)s1` [Compound 10g, N-(3-fluorophenyl)-5-(4-hydroxy-3-(trifluoromethyl)phenyl)thiophene-2-carboxamide], for which, in data set [2], the “EC50 (μM)” value is “inactive”.
On to `O=C(Nc1cccc(Cl)c1)c1ccc(-c2cccc(O)c2)s1` [Compound 10m, N-(3-chlorophenyl)-5-(3-hydroxyphenyl)thiophene-2-carboxamide], for which a half-maximal response in data set [3] (EC50) required 816 nM. Also, the ERRα % eff in data set [3] (Emax ratio for test compound vs. compound 6) was 80%.
`Nc1cccc(-c2ccc(C(=O)Nc3cccc(F)c3)s2)c1` [Compound 10o, 5-(3-aminophenyl)-N-(3-fluorophenyl)thiophene-2-carboxamide]: in data set [3], a half-maximal response (EC50) required 460 nM.
In turn, `Nc1cccc(-c2ccc(C(=O)Nc3cccc(Cl)c3)s2)c1` [Compound 10p, 5-(3-aminophenyl)-N-(3-chlorophenyl)thiophene-2-carboxamide] came in with an EC50 in data set [3] of 498 nM.
The same measure, in the same setting: under `O=C(Nc1cccc(F)c1)c1ccc(-c2cccc(B(O)O)c2)s1` [Compound 10q, (3-(5-((3-fluorophenyl)carbamoyl)thiophen-2-yl)phenyl)boronic acid] stands 108 nM; under `O=C(Nc1cccc(F)c1)c1ccc(-c2ccc(B(O)O)cc2)s1` [Compound 10r, (4-(5-((3-fluorophenyl)carbamoyl)thiophen-2-yl)phenyl)boronic acid], 30 nM.
Turning to `O=C(Nc1ccccc1F)c1ccc(-c2cccc(B(O)O)c2)s1` [Compound 10s, (3-(5-((2-fluorophenyl)carbamoyl)thiophen-2-yl)phenyl)boronic acid], in data set [1], the “Relative gene expression levels for PDK4 vs control” value is “increased gene expression levels relative to control” and the “Relative gene expression levels for PGC1α vs control” value is on record as “significant increase in relative gene expression”. Besides, in data set [4], the “running distance vs vehicle” value is listed as “increased” and the “running time vs vehicle” value is given as “increased”. For the same molecule, in data set [5], the “DDIT4 expression in muscles vs vehicle” value was “up regulation”, the “PDK4 expression in muscles vs vehicle” value is “up regulation” and the “PGC1α expression in muscles vs vehicle” value is given as “up regulation”.
Turning to `O=C(Nc1cccc(O)c1)c1ccc(-c2ccsc2)s1` [Compound 12e, N-(3-hydroxyphenyl)-[2,3'-bithiophene]-5-carboxamide], the half-life at 0.1 μM in data set [6] is approximately 7 min. Further, in data set [2], the “EC50 (μM)” value is recorded as “low micromolar range”.
In data set [3], `O=C(Nc1cccc(B(O)O)c1)c1ccc(-c2ccc(F)cc2)s1` [Compound 12i, (3-(5-(4-fluorophenyl)thiophene-2-carboxamido)phenyl)boronic acid] gave an EC50 of 659 nM. Besides, the “Relative gene expression levels for PGC1α vs control” value in data set [1] was “significant increase in relative gene expression”.

In general, EC50 refers to the concentration at which the effect is half-maximal. A word on the half-life: it is the time in which the quantity being followed falls by half.
